Eight compounds from PubChem BioAssay (NCI) can be followed below.

Among the test systems are SNB-75 CNS; SK-MEL-5 melanoma; MDA-MB-435; NCI-H23 lung; HCC-2998 colon; SK-MEL-2 melanoma; SF-539 CNS; UO-31 renal; RPMI-8226 leukemia; OVCAR-5 ovarian.
Holding throughout (experiment): NCI anticancer screen, dose series, 48 h

Each structure is given as a SMILES string. “And” between values parts separate entries of the source, which are not always exact repeats. Identical values can stand only once.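 All cell lines were grown in 96-well plates and treated with compound for 48 hours. GI50 marks 50% less growth. TGI: concentration producing complete growth inhibition.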

As for `CC1(C)CCC2=C(O1)c1ccccc1C(=O)C2=O`, the GI50 in the test with SNB-75 CNS was 1640 nM; with SK-MEL-5 melanoma, 1.01 µM; in the test on MDA-MB-435 it was 191 nM; with NCI-H23 lung, 1570 nM; with HCC-2998 colon, 1.76 µM; in the test on SK-MEL-2 melanoma, 2050 nM. Besides, the GI50 with SF-539 CNS was 1630 nM; with UO-31 renal, 1540 nM and 1050 nM; in the test on RPMI-8226 leukemia, 1460 nM; in the test with OVCAR-5 ovarian, 1810 nM. The TGI in the test with SNB-75 CNS is 3.01 µM and 1.35 µM; in the test with SK-MEL-5 melanoma, 2.19 µM and 0.714 µM; in the test with NCI-H23 lung, 3.91 µM and 1.09 µM; with HCC-2998 colon, 3.25 µM; with SK-MEL-2 melanoma, 4.13 µM and 3.07 µM; in the test with SF-539 CNS it was 2990 nM and 918 nM. Further, the TGI in the test on UO-31 renal is 2890 nM and 2230 nM; with RPMI-8226 leukemia it was 5.76 µM and 1.48 µM; in the test on OVCAR-5 ovarian, 3.33 µM and 1.02 µM.

As for `CS(=O)(=O)Nc1ccc(-c2cc(-c3ccccc3)cc(C(N)=O)c2N)cc1`, the GI50 was 8890 nM with SNB-75 CNS; 15.6 µM with SK-MEL-5 melanoma; over 25000 nM with MDA-MB-435; over 25000 nM in the test on NCI-H23 lung; over 25 µM in the test on HCC-2998 colon; over 25000 nM with SK-MEL-2 melanoma. Besides, the GI50 is over 25000 nM in the test on SF-539 CNS, 14700 nM in the test on UO-31 renal, 18400 nM in the test on RPMI-8226 leukemia and over 25000 nM in the test with OVCAR-5 ovarian. Also, the TGI in the test with SNB-75 CNS, in the test with SK-MEL-5 melanoma, in the test on MDA-MB-435, in the test with NCI-H23 lung, with HCC-2998 colon and with SK-MEL-2 melanoma was over 25 µM each time. The TGI with SF-539 CNS was over 25000 nM; in the test with UO-31 renal, over 25000 nM; in the test on RPMI-8226 leukemia it was over 25 µM; in the test on OVCAR-5 ovarian, over 25 µM.

Turning to `Clc1ccc2c(c1)N(c1ncnc3ccc(-c4cnc5[nH]ccc5c4)cc13)CC2`, the GI50 with SNB-75 CNS was 776 nM; in the test with SK-MEL-5 melanoma, 3.8 µM; with MDA-MB-435 it was 295 nM; in the test with NCI-H23 lung it was 3200 nM; in the test with HCC-2998 colon, 11.3 µM; in the test on SK-MEL-2 melanoma, 2880 nM. Moreover, the GI50 in the test on SF-539 CNS was 6800 nM; in the test with UO-31 renal, 484 nM; with RPMI-8226 leukemia it was 766 nM; with OVCAR-5 ovarian, 898 nM. Further, the TGI in the test on SNB-75 CNS was found to be 21.1 µM; in the test with SK-MEL-5 melanoma it was 26.4 µM; in the test with MDA-MB-435, 1.2 µM; in the test with NCI-H23 lung, 52.4 µM; in the test with HCC-2998 colon, 68.9 µM; with SK-MEL-2 melanoma, 22.8 µM. Also, the TGI is 48700 nM in the test on SF-539 CNS, 16700 nM in the test with UO-31 renal, over 100 µM in the test with RPMI-8226 leukemia and 22 µM with OVCAR-5 ovarian.

On to `COc1ccc2c(c1)[nH]c(=O)c1c3cc(OC)ccc3cn21`, for which the GI50 with SNB-75 CNS is 18.7 nM; in the test with SK-MEL-5 melanoma, under 0.0128 µM; in the test on MDA-MB-435, under 10 nM; in the test on NCI-H23 lung, 46 nM; in the test on HCC-2998 colon, 0.0159 µM; in the test on SK-MEL-2 melanoma it was 53.8 nM. In addition, the GI50 was 17.9 nM in the test with SF-539 CNS, 28 nM in the test on UO-31 renal, 16 nM with RPMI-8226 leukemia and 54.5 nM in the test on OVCAR-5 ovarian. Also, the TGI in the test with SNB-75 CNS is 1.61 µM; with SK-MEL-5 melanoma it was 0.116 µM; in the test on MDA-MB-435 it was under 0.01 µM; in the test on NCI-H23 lung, 1.12 µM; in the test on HCC-2998 colon it was 0.0701 µM; in the test on SK-MEL-2 melanoma, 2.43 µM. Also, the TGI in the test with SF-539 CNS is 49.8 nM; in the test on UO-31 renal it was 1900 nM; in the test with RPMI-8226 leukemia it was 0.0874 µM; in the test on OVCAR-5 ovarian, 2.3 µM.

Regarding `Clc1cccc(Cl)c1C1CSc2ccccc2N=C1c1ccccc1` (configuration not stated), the GI50 in the test with SNB-75 CNS was 2530 nM; with SK-MEL-5 melanoma it was 4.74 µM; in the test with MDA-MB-435, 3590 nM; with NCI-H23 lung, 13100 nM; in the test on HCC-2998 colon it was 4.74 µM; with SK-MEL-2 melanoma, 11200 nM. In addition, the GI50 in the test with SF-539 CNS is 6080 nM; in the test on UO-31 renal, 1420 nM; in the test on RPMI-8226 leukemia it was 2460 nM; in the test on OVCAR-5 ovarian it was 3880 nM. Moreover, the TGI with SNB-75 CNS was 17.2 µM; with SK-MEL-5 melanoma it was 18.1 µM; with MDA-MB-435 it was 13.6 µM; in the test with NCI-H23 lung it was 31.4 µM; in the test on HCC-2998 colon it was 15.5 µM; in the test with SK-MEL-2 melanoma, 24.3 µM. Also, the TGI is 18900 nM in the test on SF-539 CNS, 4570 nM with UO-31 renal, 7.1 µM in the test with RPMI-8226 leukemia and 13.2 µM with OVCAR-5 ovarian.

For `C=CC(=O)NCc1cccc(Nc2ncc(Br)c(NCCCNC(=O)C3CCC3)n2)c1`, the GI50 with SNB-75 CNS is 113 nM and 83.9 nM; with SK-MEL-5 melanoma it was 2.23 µM and 1.87 µM; in the test on MDA-MB-435 it was 2330 nM and 2140 nM; in the test with NCI-H23 lung, 1500 nM and 1190 nM; in the test with HCC-2998 colon, 1.83 µM and 3.03 µM; in the test with SK-MEL-2 melanoma it was 2170 nM and 2930 nM. The GI50 was 369 nM and 475 nM with SF-539 CNS; 256 nM and 260 nM in the test with UO-31 renal; 1920 nM and 1880 nM in the test with RPMI-8226 leukemia; 709 nM and 2560 nM with OVCAR-5 ovarian. Further, the TGI is 0.637 µM and 1.02 µM in the test on SNB-75 CNS; 5.35 µM and 5.81 µM in the test on SK-MEL-5 melanoma; 8.47 µM and 5.75 µM in the test on MDA-MB-435; 8.7 µM and 7.85 µM in the test with NCI-H23 lung; 5.27 µM and 10.1 µM in the test with HCC-2998 colon; 5.57 µM and 7.08 µM in the test with SK-MEL-2 melanoma. For the same compound, the TGI in the test with SF-539 CNS was 2030 nM and 2720 nM; in the test with UO-31 renal, 1110 nM and 916 nM; in the test with RPMI-8226 leukemia it was 8.19 µM and > 25 µM; in the test on OVCAR-5 ovarian it was 12.5 µM and 15.6 µM.

For the compound `NC(=O)c1ccc(NN=O)nc1`, the TGI in the test on SNB-75 CNS, in the test with SK-MEL-5 melanoma, in the test on MDA-MB-435, in the test with NCI-H23 lung, in the test on HCC-2998 colon and in the test on SK-MEL-2 melanoma was over 100 µM in each case. For the same compound, the TGI is over 100000 nM in the test with SF-539 CNS, over 100000 nM with UO-31 renal, over 100 µM in the test with RPMI-8226 leukemia and over 100 µM in the test on OVCAR-5 ovarian. The GI50 with MDA-MB-435, in the test with SK-MEL-2 melanoma and in the test on RPMI-8226 leukemia was over 100000 nM each time.

Turning to `O=[N+]([O-])c1ccc(Sc2ncnc3nc[nH]c23)c2nonc12`, the GI50 is 1830 nM with SNB-75 CNS; 10.2 µM in the test on SK-MEL-5 melanoma; 3040 nM with MDA-MB-435; 10300 nM in the test on NCI-H23 lung; 4.6 µM with HCC-2998 colon; 4360 nM in the test with SK-MEL-2 melanoma. The GI50 was 4530 nM in the test with SF-539 CNS, 1600 nM in the test on UO-31 renal, 2920 nM in the test on RPMI-8226 leukemia and 10300 nM in the test with OVCAR-5 ovarian. The TGI turned out to be 14 µM with SNB-75 CNS; 22.3 µM with SK-MEL-5 melanoma; 17.1 µM with MDA-MB-435; 23.6 µM with NCI-H23 lung; 27.6 µM in the test on HCC-2998 colon; 15.9 µM with SK-MEL-2 melanoma. For the same compound, the TGI is 21500 nM in the test with SF-539 CNS, 2950 nM in the test on UO-31 renal, 48 µM with RPMI-8226 leukemia and 22.6 µM in the test with OVCAR-5 ovarian.
